Results published in patent publication US11661431B2, “Thienopyrrole compounds” (Gilead Sciences, Inc., priority 2021, dated 2023).
≈ marks a conversion by molar mass, not a printed value. Read-outs that look alike come from different tables or passages of the source.

Key:
[1] = biological target: MATE2-K (multidrug and toxin extrusion protein 2) (Homo sapiens (Human), UniProt Q86VL8); experiment: MATE2-K IC50 assay (14C-metformin uptake in transfected MDCK-II cells); format: in vitro ADME
Protocol: MATE2-K (multidrug and toxin extrusion protein 2) is expressed in the apical membrane in the kidney and mediates the elimination of compounds to urine. MDCK-II cells were maintained in DMEM with low glucose and 10% FBS. Cells passages up to 40 were seeded at 60K±10K cells/well on 96-well, transwell membrane plates approximately 24 hours before transfection. Transport assays were carried out approximately 48 hours after transfection. […]. The assay plate was then placed in a 37° C. incubator with orbital shaking at approximately 60 RPM for the pre-incubation time of 15 minutes. […]. The assay plate was incubated at 37° C. with orbital shaking at approximately 60 RPM for the incubation time of 5 minutes. At end of the 5-minute incubation, 15 μL of dosing solution was removed from each well containing the compound being tested and measured using LC/MS/MS for dose recovery assessment. The assay wells were then washed four times with ice cold PBS. 60 μL cell extraction solution was added to each well and the plate was incubated at 37° C. with orbital shaking at approximately 60 RPM for the 15 minutes. After this incubation, 30 μL was removed from each well, added to 200 μL scintillation fluid, and counted on a 1450 Microbeta (Perkin-Elmer) to measure the probe substrate uptake. Inhibition potential of the compound being tested was calculated by dividing the transporter-mediated uptake rate in presence of the compound being tested or the reference inhibitor by the transporter-mediated uptake rate in presence of vehicle control and fitted to a sigmoidal function to determine the IC50 values.

[2] = biological target: TLR8 (Homo sapiens (Human), UniProt Q9NR97); experiment: TLR8 human peripheral blood mononuclear cell (PBMC) cell-based assay (Compound A as agonist; TNFα and IL12p40 readout); details: human PBMCs, TLR8 agonist Compound A at 800 nM, 6 hours, antagonist potency; read-out: TLR-8 EC50
[3] = Kinetic solubility at pH 7.4; details: 1×PBS buffer (pH 7.4), 22.8 °C, pH 7.4, aqueous buffer, kinetic from dmso stock
Protocol: Kinetic Solubility at pH 7.4
(§1) The final DMSO Concentration was 1.0% and maximum theoretical compound concentration is 100 μM. The filter plate was sealed. […] The collection plate was sealed for analysis.
(§2) Filtrates were injected into the nitrogen detector for quantification on Analiza's Automated Discovery Workstation. The results are reported in μg/ml.
(§3) The filtrates were quantified with respect to this calibration curve. The calculated solubility values were corrected for background nitrogen present in the DMSO, and the media used to prepare the samples.
(§4) The 1×PBS buffer (pH 7.4) was prepared by adding 50 mL of phosphate buffered saline solution 10×, PBS (Fisher Bioreagent part number BP399-500) to approximately 450 mL HPLC grade H2O. The volume of the solution was then adjusted to 500 mL for a total dilution factor of 1:10 and a final PBS concentration of 1×. The pH of the final solution was measured and found to be 7.4.
(§5) Each compound tested was analyzed as a trifluoroacetate salt.

[4] = biological target: TLR7 (Homo sapiens (Human), UniProt Q9NYK1); experiment: TLR7 human peripheral blood mononuclear cell (PBMC) cell-based assay (GS-986 as agonist; IL-6 and IFNα readout); details: human PBMCs, TLR7 agonist GS-986 at 400 nM, 6 hours, antagonist potency; read-out: TLR-7 EC50
How it was run: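 IL-6 and IFNα released into supernatant were quantified by electrochemiluminescence immunoassay. Before that, human PBMCs at 100,000 per well received a 10-point antagonist titration for 1 h, then TLR7 agonist for 6 more hours, all at 37 °C, 5% CO2.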

[5] = tested on: cryopreserved hepatocytes; experiment: Human hepatic stability in cryopreserved hepatocytes; details: 1×10^6 cells/mL, aliquots at 0, 1, 3 and 6 hours, LC-MS/MS
Protocol: (§6) Each tested compound was incubated in suspensions of cryopreserved hepatocytes at a final concentration of 1 μM. Vials containing cryopreserved hepatocytes were removed from liquid nitrogen and immediately immersed in a 37° C. water bath. The vials were swirled gently until the contents had thawed. They were then immediately emptied into 48 mL of pre-warmed HT medium in a 50 mL conical tube. Cells remaining in the vial were resuspended with 1.0 mL of pre-warmed HT medium and added to the conical tube. The tube was capped and then gently inverted several times to re-suspend the hepatocytes. The cell suspension was centrifuged at 500×g for 10 minutes at room temperature and the supernatant discarded. The cell pellet was loosened by gently swirling the centrifuge tube. Non-supplemented KHB medium was added to obtain the appropriate target cell density.
(§7) For incubations, aliquots of hepatocyte suspension (250 mL at a concentration of 2×10^6 cells/mL) were added to 250 mL of 2 mM of each tested compound in KHB, in duplicate wells in a 24-well plate. Final concentration in the incubations were 1×10^6 cells/mL and 1 mM of each tested compound. […] A cell-free control was also tested in parallel with the incubations. The incubations were carried out with gentle shaking in a 37° C. incubator under a humid atmosphere of 95% air/5% CO2 (v/v). Aliquots (100 mL) were removed after 0, 1, 3, and 6 hours and added to 200 mL IS/Q. The samples were then placed on a shaker for 10 min followed by centrifugation at 3000×g for 20 min. The supernatant was transferred to a new plate and diluted with 100 μL of water to reduce the organic solvent content and then placed on a shaker for 10 mins. Samples were injected and analyzed using LC-MS/MS.

[6] = tested on: cryopreserved hepatocytes; details: human, 1 μM
Protocol: as §6, §7

[7] = physchem; details: 22.8 °C, pH 7.4, aqueous buffer, kinetic from dmso stock
Protocol: Kinetic Solubility at pH 7.4
as §1, §2, §3, §4, §5

[8] = transfected MDCK-II cells, 10 μM 14C-metformin probe substrate, read-out: MATE2-K IC50

TLR8, sequence (Q9NR97 27-1041): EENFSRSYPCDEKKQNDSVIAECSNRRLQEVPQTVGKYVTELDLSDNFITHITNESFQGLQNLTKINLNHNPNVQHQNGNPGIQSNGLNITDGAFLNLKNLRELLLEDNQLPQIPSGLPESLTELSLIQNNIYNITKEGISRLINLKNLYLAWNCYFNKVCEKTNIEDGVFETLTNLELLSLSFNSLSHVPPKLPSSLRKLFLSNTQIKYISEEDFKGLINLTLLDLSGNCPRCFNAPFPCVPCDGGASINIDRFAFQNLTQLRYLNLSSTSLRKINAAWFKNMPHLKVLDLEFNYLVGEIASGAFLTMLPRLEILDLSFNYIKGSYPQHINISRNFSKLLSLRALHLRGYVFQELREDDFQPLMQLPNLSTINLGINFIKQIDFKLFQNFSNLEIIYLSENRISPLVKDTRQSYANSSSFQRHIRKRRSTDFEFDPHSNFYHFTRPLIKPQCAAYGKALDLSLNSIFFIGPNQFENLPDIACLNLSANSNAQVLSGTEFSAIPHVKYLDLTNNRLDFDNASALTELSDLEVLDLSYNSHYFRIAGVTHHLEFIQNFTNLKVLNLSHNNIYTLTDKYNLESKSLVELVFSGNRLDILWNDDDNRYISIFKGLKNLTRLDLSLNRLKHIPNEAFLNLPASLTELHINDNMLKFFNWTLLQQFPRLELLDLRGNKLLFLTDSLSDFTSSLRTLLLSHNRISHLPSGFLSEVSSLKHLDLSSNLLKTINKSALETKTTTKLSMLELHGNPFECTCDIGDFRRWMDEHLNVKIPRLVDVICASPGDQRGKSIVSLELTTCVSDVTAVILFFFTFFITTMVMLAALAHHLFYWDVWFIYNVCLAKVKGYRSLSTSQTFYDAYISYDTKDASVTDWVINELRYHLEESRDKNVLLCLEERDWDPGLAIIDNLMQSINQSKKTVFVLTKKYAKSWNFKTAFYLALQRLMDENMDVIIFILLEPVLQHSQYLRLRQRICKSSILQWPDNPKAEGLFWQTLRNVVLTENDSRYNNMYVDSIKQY
MATE2-K (multidrug and toxin extrusion protein 2), sequence (Q86VL8 other isoform, or with tags, fused parts or gaps, species assumed): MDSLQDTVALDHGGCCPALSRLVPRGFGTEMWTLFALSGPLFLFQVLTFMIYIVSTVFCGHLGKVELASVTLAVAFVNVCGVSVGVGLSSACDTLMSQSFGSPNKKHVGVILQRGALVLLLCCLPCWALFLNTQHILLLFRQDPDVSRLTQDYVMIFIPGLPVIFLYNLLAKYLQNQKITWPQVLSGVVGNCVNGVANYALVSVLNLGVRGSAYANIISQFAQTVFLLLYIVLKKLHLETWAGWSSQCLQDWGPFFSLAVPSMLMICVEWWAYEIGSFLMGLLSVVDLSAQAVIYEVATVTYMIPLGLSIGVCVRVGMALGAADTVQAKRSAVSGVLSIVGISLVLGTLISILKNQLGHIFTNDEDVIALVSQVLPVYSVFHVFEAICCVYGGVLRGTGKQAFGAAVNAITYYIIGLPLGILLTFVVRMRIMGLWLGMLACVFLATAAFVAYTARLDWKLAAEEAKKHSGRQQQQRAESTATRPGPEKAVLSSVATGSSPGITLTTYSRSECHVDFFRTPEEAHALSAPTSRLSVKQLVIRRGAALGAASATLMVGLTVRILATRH
TLR7, sequence (Q9NYK1 27-1049): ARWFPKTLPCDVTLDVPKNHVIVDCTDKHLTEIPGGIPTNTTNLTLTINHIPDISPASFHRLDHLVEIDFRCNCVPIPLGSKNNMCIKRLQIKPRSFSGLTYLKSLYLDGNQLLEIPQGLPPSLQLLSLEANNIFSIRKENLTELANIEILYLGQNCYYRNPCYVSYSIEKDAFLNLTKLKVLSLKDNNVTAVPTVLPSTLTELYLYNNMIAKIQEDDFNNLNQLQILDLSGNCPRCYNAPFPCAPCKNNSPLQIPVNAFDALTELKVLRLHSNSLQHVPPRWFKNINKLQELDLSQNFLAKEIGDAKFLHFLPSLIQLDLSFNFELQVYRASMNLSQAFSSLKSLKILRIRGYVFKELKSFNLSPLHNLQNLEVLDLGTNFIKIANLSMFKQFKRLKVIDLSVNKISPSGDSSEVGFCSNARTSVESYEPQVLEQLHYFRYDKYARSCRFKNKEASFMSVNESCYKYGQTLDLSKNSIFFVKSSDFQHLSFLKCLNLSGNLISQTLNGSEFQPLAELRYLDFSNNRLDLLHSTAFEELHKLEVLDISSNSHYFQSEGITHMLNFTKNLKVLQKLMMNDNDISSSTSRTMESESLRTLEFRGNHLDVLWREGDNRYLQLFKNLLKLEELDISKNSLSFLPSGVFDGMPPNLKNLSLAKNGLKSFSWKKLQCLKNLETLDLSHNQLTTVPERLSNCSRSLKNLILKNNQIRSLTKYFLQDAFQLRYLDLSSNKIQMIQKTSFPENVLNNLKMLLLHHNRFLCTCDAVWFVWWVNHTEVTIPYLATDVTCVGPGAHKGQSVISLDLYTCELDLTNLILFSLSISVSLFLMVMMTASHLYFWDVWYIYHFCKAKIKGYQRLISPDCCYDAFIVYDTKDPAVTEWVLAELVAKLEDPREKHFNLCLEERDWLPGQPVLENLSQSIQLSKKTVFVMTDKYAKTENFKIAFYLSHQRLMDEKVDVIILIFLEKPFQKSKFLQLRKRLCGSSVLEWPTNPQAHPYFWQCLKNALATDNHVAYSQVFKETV

Row | EC50 [2] [nM] | solubility kinetic at 24 h [3] [µg/mL] | EC50 [4] [nM] | Predicted Clearance [5] [mL/min/kg] | Compound | IC50 [1, 8] [nM] | IC50 [1] [nM] | Predicted Clearance [6] [mL/min/kg] | solubility kinetic at 24 h [7] [µg/mL]
1 | 0.71 | 23.5 (≈ 47.9 µM) | 0.32 |  | Cc1c(-c2[nH]c3sc([C@@H]4C[C@@H]5C[C@H]4CN5C(C)C(N)=O)c(C)c3c2C(C)C)cn2ncnc2c1C (single isomer, unassigned) [Example 100] | 9700 |  |  | 
2 | 0.81 |  | 0.13 | 8.83 | Cc1c(-c2[nH]c3sc([C@H]4C[C@H]5C[C@@H]4CN5CC(N)=O)c(C)c3c2C(C)C)cn2ncnc2c1C [Example 84] |  |  |  | 
3 | 1.09 | 22.8 (≈ 49.3 µM) | 0.31 | 13.5 | Cc1c(-c2[nH]c3sc([C@@H]4C[C@@H]5C[C@H]4CN5CC(N)=O)cc3c2C(C)C)cn2ncnc2c1C [Example 97] |  |  |  | 
4 | 3.2 | 1 (≈ 2.22 µM) | 0.99 | 2.67 | Cc1c(-c2[nH]c3sc(C4CCN(CC(N)=O)CC4)cc3c2C(C)C)cn2ncnc2c1C [Example 221] |  |  |  | 
5 | 2.77 |  | < 0.05 |  | Cc1c(-c2[nH]c3sc(C4CCC(N5CC[C@@H](F)C5)CC4)c(C)c3c2C(C)C)cn2ncnc2c1C (stereo partly shown) [Example 303] |  |  |  | 
6 | 1.76 |  | < 0.05 |  | Cc1c(-c2[nH]c3sc(C4CCC(N5CC(C)(O)C5)CC4)c(C)c3c2C(C)C)cn2ncnc2c1C (stereo not shown) [Example 304] |  |  |  | 
7 | 1.16 |  | < 0.05 |  | Cc1c(-c2[nH]c3sc([C@@H]4C[C@@H]5C[C@H]4CN5C(CO)CO)c(C)c3c2C(C)C)cn2ncnc2c1C [Example 308, 2-((1S,4R,5R)-5-(5-(7,8-dimethyl-[1,2,4]triazolo[1,5-a]pyridin-6-yl)-4 isopropyl-3-methyl-6H-thieno[2,3-b]pyrrol-2-yl)-2-azabicyclo[2.2.1]heptan-2-yl)propane-1,3-diol] |  |  |  | 
8 | 9.94 |  | 0.25 |  | Cc1c(C2CCC(C(=O)N3CCNCC3)CC2)sc2[nH]c(-c3cc(C)c4ncnn4c3)c(C(C)C)c12 (stereo not shown) [Example 310] |  |  |  | 

The remaining lines, values behind:

Row | Compound | EC50 [2] [nM] | solubility kinetic at 24 h [3] [µg/mL] | EC50 [4] [nM] | Predicted Clearance [5] [mL/min/kg] | IC50 [1, 8] [nM] | IC50 [1] [nM] | Predicted Clearance [6] [mL/min/kg] | solubility kinetic at 24 h [7] [µg/mL]
9 | Cc1c(-c2[nH]c3sc(C4CCN(C(=O)[C@H]5COCCN5)CC4)c(C)c3c2C(C)C)cn2ncnc2c1C [Example 56] | 2.46 | 26.5 (≈ 50.9 µM) | 0.24 | 4.17 | 7700 |  |  | 
10 | Cc1c(-c2[nH]c3sc(C4CCN(CC(N)=O)CC4)c(C)c3c2C(C)C)cn2ncnc2c1C [Example 67] | 2.08 | 16.8 (≈ 36.2 µM) | 0.35 | 2.33 |  | 6200 |  | 
11 | Cc1c(-c2[nH]c3sc([C@@H]4C[C@@H]5C[C@H]4CN5CC(N)=O)c(C)c3c2C(C)C)cn2ncnc2c1C [Example 79, 2-((1S,4R,5R)-5-(5-(7,8-dimethyl-[1,2,4]triazolo[1,5-a]pyridin-6-yl)-4 isopropyl-3-methyl-6H-thieno[2,3-b]pyrrol-2-yl)-2-azabicyclo[2.2.1]heptan-2-yl)acetamide] | 0.23 | 21.5 (≈ 45.1 µM) | 0.12 | 4.33 |  | 8100 |  | 
12 | CNC(=O)CN1C[C@@H]2C[C@H]1C[C@H]2c1sc2[nH]c(-c3cn4ncnc4c(C)c3C)c(C(C)C)c2c1C [Example 82] | 0.17 |  | 0.37 |  |  | > 14500 |  | 
13 | Cc1c(-c2[nH]c3sc([C@@H]4C[C@H]5CC[C@@H](C4)N5CC(N)=O)c(C)c3c2C(C)C)cn2ncnc2c1C [Example 91] | 5.41 |  | 0.09 |  |  | 7800 | 4 | 2.2 (≈ 4.48 µM)
14 | Cc1c(-c2[nH]c3sc(C4CCN(C(=O)[C@H]5CCCN5)CC4)c(C)c3c2C(C)C)cn2ncnc2c1C [Example 98] | 4.48 | 24.9 (≈ 49.3 µM) | 0.05 | 1.83 |  |  |  | 
15 | Cc1c(-c2[nH]c3sc([C@@H]4C[C@@H]5C[C@H]4CN5Cc4cn(C)nn4)c(C)c3c2C(C)C)cn2ncnc2c1C [Example 175] | < 0.05 | 21.1 (≈ 41 µM) | < 0.05 | 4.33 |  |  |  | 
16 | Cc1c(-c2[nH]c3sc([C@H]4C[C@@H]5C[C@H]4CN5CC(N)=O)c(C)c3c2C(C)C)cn2ncnc2c1C [Example 183] | 2.82 |  | 0.07 | 10.7 |  |  |  | 
17 | Cc1c(-c2[nH]c3sc([C@@H]4C[C@@H]5C[C@H]4CN5CCO)c(C)c3c2C(C)C)cn2ncnc2c1C [Example 229] | 0.35 | 27.7 (≈ 59.7 µM) | 0.06 | 3.67 |  |  |  | 
18 | Cc1c(-c2[nH]c3sc([C@@H]4C[C@@H]5C[C@H]4CN5CCS(=O)(=O)CCO)c(C)c3c2C(C)C)cn2ncnc2c1C [Example 307, 2-((2-((1S,4R,5R)-5-(5-(7,8-dimethyl-[1,2,4]triazolo[1,5-a]pyridin-6-yl)-4 isopropyl-3-methyl-6H-thieno[2,3-b]pyrrol-2-yl)-2-azabicyclo[2.2.1]heptan-2-yl)ethyl)sulfonyl)ethan-1-ol] | 0.25 |  | 0.21 |  |  |  |  | 
19 | Cc1c(-c2[nH]c3sc(C4CCC(C(=O)N5CCNCC5)CC4)c(C)c3c2C(C)C)cn2ncnc2c1C (stereo not shown) [Example 309, (4-(5-(7,8-dimethyl-[1,2,4]triazolo[1,5-a]pyridin-6-yl)-4-isopropyl-3-methyl-6H-thieno[2,3-b]pyrrol-2-yl)cyclohexyl)(piperazin-1-yl)methanone] | 8.07 |  | 0.14 |  |  |  |  | 
20 | Cc1c(-c2[nH]c3ccc(C4CCN(CC(N)=O)CC4)cc3c2C(C)C)cn2ncnc2c1C [Example A-1, reference compound] |  | < 1 |  | 4.5 | 300 |  |  | 
21 | COc1cc(-c2[nH]c3cc(C4CCNCC4)sc3c2C(C)C)cn2ncnc12 [Example B-1, reference compound] | 2.55 | 22 (≈ 55.6 µM) | 0.3 | 4.33 |  | 1100 |  | 
